How the values were obtained:
[1] = system: U2OS cells expressing Per2-luciferase; experiment: Circadian rhythm of U2OS cells expressing Per2-luciferase; format: cell-based, human; conditions: for Phenotype: Period shortening / Phenotype: phase of the circadian rhythm: Cay10576 15 μM, dinaciclib 10 nM, Cdk/Crk inhibitor 10 nM, n=4 (FIG. 1b, 1c); for Phenotype: Period lengthening: IKBKB inhibitors, all at 10 μM, n=5 (FIG. 1a)
Procedure: (a) IKBKB inhibitors. The concentration of all the inhibitors was 10 μM, n=5. (b) IKBKE inhibitors.
The above experiments were conducted with the drug added to the culture media from the beginning.

[2] = system: U2OS cells expressing Per2-luciferase; experiment: as above; format: cell-based, human
[3] = system: SCN explants; experiment: Circadian rhythm of SCN explants from Per2::Luciferase mice; format: cell-based, mouse; conditions: applied at CT12; p<0.01, n=8
Description: U2OS cells are just cultured cells, while the SCN is the master clock in mammals. We dissected the SCN from mice expressing the Per2::Luciferase gene which faithfully reported the circadian rhythm (Yoo et al., 2004).

[4] = applied from the beginning of the assay

Compound | Phenotype: Period shortening [1, 4] | Phenotype: Period lengthening [1] | Phenotype: phase of the circadian rhythm [1] | other results
CCc1cnn2c(NCc3ccc[n+]([O-])c3)cc(N3CCCC[C@H]3CCO)nc12 [Dinaciclib] | Period shortening, 0.6 ± 0.050 h; phase | – | – | Phenotype: Period shortening ([1]; applied from the beginning of the assay, listed as dinaciclib): 0.6 h; Increase of amplitude [1, 4]: 1.78 fold; Phase delay ([2]; applied at CT6, p<0.001, n=5): 7.543 ± 0.6185 h; Phase delay ([2]; applied at CT12, p<0.0001, n=5): 5.808 ± 0.5455 h; Phase delay ([2]; applied at CTO, p<0.01, n=5): 4.092 ± 0.9062 h; Phase advance ([2]; introduced at CT18): 1.7 ± 0.81 h; Phase advance of SCN explants [3]: 2.488 ± 0.7391 h
NC(=O)Nc1sc(-c2ccccc2)cc1C(N)=O [Ikk2 inhibitor vi, 2-[(aminocarbonyl)amino]-5-phenyl-3-thiophenecarboxamide] | – | Period lengthening, 1.25 ± 0.149 h | – | –
O=C(Nc1cc(C(F)(F)F)cc(C(F)(F)F)c1)c1cc(Cl)ccc1O [Ikk2 inhibitor v, N-[3,5-bis(trifluoromethyl)phenyl]-5-chloro-2-hydroxybenzamide] | – | Period lengthening, 1.84 ± 0.192 h | – | –
CC(C)c1[nH]n(-c2c(Cl)cccc2Cl)c2nc(Cc3ccc(OCCO)cc3)nc(=O)c1-2 [Cdk/crk inhibitor, 1-(2,6-dichlorophenyl)-6-[[4-(2-hydroxyethoxy)phenyl]methyl]-3-propan-2-yl-2H-pyrazolo[3,4-d]pyrimidin-4-one] | Period shortening, 0.5 ± 0.074 h; phase | – | delay | –
NC(=O)Nc1sc(-c2ccc(F)cc2)cc1C(N)=O [Ikk2 inhibitor iv, 2-(carbamoylamino)-5-(4-fluorophenyl)thiophene-3-carboxamide] | – | Period lengthening, 3.16 ± 0.167 h | – | –
COc1cc2ncn(-c3cc(OCc4ccccc4S(C)(=O)=O)c(C#N)s3)c2cc1OC [Cay10576] | Period shortening, 0.3 ± 0.060 h; phase | – | delay | Phenotype: Period shortening ([1]; applied from the beginning of the assay, listed as Cayl0576): 0.3 h

Source: patent publication US20200009134A1, “Method and Compound for Modifying Circadian Clock” (Gritscience Biopharmaceuticals Co., Ltd., priority 2017, published 2020)
